From ChEMBL document CHEMBL5726062, “Substituted oxopyridine derivatives” (2019)

Biological target: Coagulation factor XI (Homo sapiens, UniProt P03951)
Experiment: Measurement of FXIa Inhibition: The factor XIa inhibition of the substances according to the invention is determined using a biochemical test system which utilizes the reaction of a peptidic factor XIa substrate to determine the enzymatic activity of human factor XIa. Here, factor XIa cleaves from the peptic factor XIa substrate the C-terminal aminomethylcoumarin (AMC), the fluorescence of which is measured. The determinations are carried out in microtitre plates.Test substances are dissolved in dimethyl sulphoxide and serially diluted in dimethyl sulphoxide (3000 μM to 0.0078 μM; resulting final concentrations in the test: 50 μM to 0.00013 μM). 1 μl of the diluted substance solutions is placed into each of the wells of white microtitre plates from Greiner (384 wells). 20 μl of assay buffer (50 mM of Tris/HCl pH 7.4; 100 mM of sodium chloride; 5 mM of calcium chloride; 0.1% of bovine serum albumin) and 20 μl of factor XIa from Kordia (0.45 nM in assay buffer) are then added successively. After […] of incubation, the enzyme reaction is started by addition of 20 μl of the factor XIa substrate Boc-Glu(OBzl)-Ala-Arg-AMC dissolved in assay buffer (10 μM in assay buffer) from Bachem, the mixture is incubated at room temperature (22° C.) for 30 min and fluorescence is then measured (excitation: 360 nm, emission: 460 nm). […]

Sequence of Coagulation factor XI (P03951 19-387 limits assumed): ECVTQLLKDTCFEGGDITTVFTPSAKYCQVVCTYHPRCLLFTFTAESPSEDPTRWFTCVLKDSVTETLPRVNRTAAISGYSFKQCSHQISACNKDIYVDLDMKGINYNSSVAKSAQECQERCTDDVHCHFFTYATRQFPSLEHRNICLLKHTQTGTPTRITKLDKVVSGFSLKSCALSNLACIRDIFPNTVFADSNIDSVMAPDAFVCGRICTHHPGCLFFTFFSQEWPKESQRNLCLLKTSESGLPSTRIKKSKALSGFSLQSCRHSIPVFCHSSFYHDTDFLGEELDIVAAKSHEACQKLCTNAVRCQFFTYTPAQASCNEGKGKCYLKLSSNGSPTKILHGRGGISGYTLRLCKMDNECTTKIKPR
Sequence of Coagulation factor XI (P03951 388-625 limits assumed): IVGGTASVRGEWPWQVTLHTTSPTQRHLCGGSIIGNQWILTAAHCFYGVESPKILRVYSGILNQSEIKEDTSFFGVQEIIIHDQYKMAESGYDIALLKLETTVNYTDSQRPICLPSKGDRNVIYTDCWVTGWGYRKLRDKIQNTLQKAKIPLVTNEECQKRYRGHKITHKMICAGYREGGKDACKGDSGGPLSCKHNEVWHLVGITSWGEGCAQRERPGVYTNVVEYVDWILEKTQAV

CNC(=O)c1ccc(NC(=O)C(Cc2cnco2)n2cc(OC)c(-c3cc(Cl)ccc3C#N)cc2=O)cn1 (racemic)
IC50: 12 nM
